From the supplement of paper PMC10307832

Key:
Assay in all cases: relative viability (nuclei count vs DMSO), 5 days (fraction); higher = more cells survive
[1] = compound: C[C@@]1(C(=O)Nc2ccc(F)nc2)CCCN1c1nc(Nc2cc(C3CC3)n[nH]2)c2cccn2n1
In short: (§1)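 Lung cancer cell lines in 1536-well plates were kept overnight at 37 °C, then pinned with five library-drug doses (not always all listed) spaced by √10 on vehicle-anchored plates. After 5 days without medium change, cells were fixed, permeabilised and Hoechst-stained in one step, imaged at 4×, and nuclei were counted with MetaXpress. Viability is treated-well nuclei divided by vehicle-well nuclei, taken as the median over plates. Plates passed only with control CV below 25% and at least one doubling.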

Motesanib = compound: CC1(C)CNc2cc(NC(=O)c3cccnc3NCc3ccncc3)ccc21 [Motesanib]
In short: as §1

[2] = compound: C[C@@]1(C(=O)Nc2ccc(F)nc2)CCCN1c1nc(Nc2cc(C3CC3)n[nH]2)c2cccn2n1 + CS(=O)(=O)N1CCN(Cc2cc3nc(-c4cccc5[nH]ncc45)nc(N4CCOCC4)c3s2)CC1 [Pictilisib] (partner 1 µM)
In short: (§2)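 Relative viability equals treated-well nuclei counts divided by vehicle-well nuclei counts. Counts came from 4× images of lung cancer cell lines grown in 1536-well plates for 5 days after pin-tool dosing on the day after seeding. Dosing used one drug alone or a fixed anchor-drug dose plus five library-drug doses (not always all listed) in √10 steps, and values are medians of duplicate plates.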

[3] = compound: C[C@@]1(C(=O)Nc2ccc(F)nc2)CCCN1c1nc(Nc2cc(C3CC3)n[nH]2)c2cccn2n1 + COc1cc2c(Oc3ccc(NC(=O)C4(C(=O)Nc5ccc(F)cc5)CC4)cc3F)ccnc2cc1OCCCN1CCOCC1 [Foretinib] (partner 0.25 µM)
In short: as §2

Cell Line: UMC-11
- relative viability ([1]; 0.04 µM): 0.981
- relative viability ([1]; 0.1265 µM): 1.03
- relative viability ([1]; 0.4 µM): 0.907
- relative viability ([1]; 1.265 µM): 0.797
- relative viability (Motesanib; 0.01 µM): 0.951
- relative viability (Motesanib; 0.03162 µM): 1.07
- relative viability (Motesanib; 0.1 µM): 0.872
- relative viability (Motesanib; 0.3162 µM): 1
- relative viability (Motesanib; 1 µM): 1.13
- relative viability ([2]; first compound 0.04 µM): 0.776
- relative viability ([2]; first compound 0.1265 µM): 0.868
- relative viability ([2]; first compound 0.4 µM): 0.805
- relative viability ([2]; first compound 1.265 µM): 0.723
- relative viability ([3]; first compound 0.04 µM): 1.09
- relative viability ([3]; first compound 0.1265 µM): 1.12
- relative viability ([3]; first compound 0.4 µM): 0.901
- relative viability ([3]; first compound 1.265 µM): 0.299
